According to PMC7069944, “Amino acid levels determine metabolism and CYP450 function of hepatocytes and hepatoma cell lines” (Nature Communications, 2020):
Values joined by “and” are separate entries in the source; they are usually repeats but may differ in a detail not shown here. Equal entries are not always repeated.

Columns and labels:
HLC = assay: Repeated-exposure DILI training compounds, resazurin conversion, HLC
Description: (§1) To evaluate the ability to predict hepatotoxicity, we adapted the differentiation assays to a 384-well format. […] As a readout, we evaluated cell viability by resazurin conversion and correlated the results to therapeutic doses (Cmax values).
(§2) PSCs were differentiated in a 384-well format. […] As a negative control, 41 wells were left untreated. HepG2 were seeded at 40,000 cells per well. […] Cells were fixed with 4% PFA. […] Drugs were administrated after 8 h of attachment.

HC3X = assay: Repeated-exposure DILI training compounds, resazurin conversion, HC3X; settings: HC3X AAGLY D40
Description: as §1, §2

HepG2 = assay: Repeated-exposure DILI training compounds, resazurin conversion, HepG2
Description: as §1, §2

HC6X = assay: Repeated-exposure DILI training compounds, resazurin conversion, HC6X
Description: as §1, §2

Question: With `CCN(CC)C(=O)/C(C#N)=C/c1cc(O)c(O)c([N+](=O)[O-])c1` [entacapone] as the compound, how does the “Resazurin conversion, repeated exposure (Supplementary Figure 7D)” value (from here on “Resazurin conversion, repeated exposure”) (HLC; HLC AAGLY D40, 10 uM) read?
Answer: 72 and 89.5 and 61.6 and 92.2 and 93.5 and 83.6

Question: And the “Resazurin conversion, repeated exposure” value (HLC; HLC AAGLY D40, 30 uM)?
Answer: 103.8 and 101.2 and 95.5 and 67.7 and 80.3 and 90.5

Question: And the “Resazurin conversion, repeated exposure” value (HLC; HLC AAGLY D40, 50 uM)?
Answer: 106.7 and 75.7 and 96.1 and 56 and 97.2 and 93.3

Question: And the “Resazurin conversion, repeated exposure” value (HLC; HLC AAGLY D40, 100 uM)?
Answer: 90.9 and 65.1 and 97.6 and 81.7 and 65.8 and 91.6

Question: What about the “Resazurin conversion, repeated exposure” value (HLC; HLC AAGLY D40, 300 uM) of the same compound?
Answer: 81.3 and 79.9 and 79 and 69.8 and 111.3 and 89.9

Question: What about the “Resazurin conversion, repeated exposure” value (HLC; HLC AAGLY D40, 500 uM) of the same compound?
Answer: 97.3 and 87.8 and 100.8 and 81.9 and 90.2 and 84.4

Question: What about the “Resazurin conversion, repeated exposure” value (HLC; HLC AAGLY D40, 1000 uM) of the same compound?
Answer: 107 and 95.5 and 86.2 and 93 and 108.2 and 101.5

Question: And the “Resazurin conversion, repeated exposure” value (HLC; HLC LDM D40, 10 uM)?
Answer: 80.5 and 101.6 and 104.1 and 93.5 and 79.5 and 109

Question: And the “Resazurin conversion, repeated exposure” value (HLC; HLC LDM D40, 30 uM)?
Answer: 122.3 and 84.7 and 104.1 and 84.4 and 84 and 104

Question: And the “Resazurin conversion, repeated exposure” value (HLC; HLC LDM D40, 50 uM)?
Answer: 80.6 and 88.8 and 112.5 and 118.1 and 65.6 and 98.1

Question: And the “Resazurin conversion, repeated exposure” value (HLC; HLC LDM D40, 100 uM)?
Answer: 89.9 and 104.8 and 77.5 and 95.7 and 95.5 and 115.1

Question: And the “Resazurin conversion, repeated exposure” value (HLC; HLC LDM D40, 300 uM)?
Answer: 108.5 and 82.7 and 104.1 and 95.3 and 63.3 and 100.3

Question: And the “Resazurin conversion, repeated exposure” value (HLC; HLC LDM D40, 500 uM)?
Answer: 94.1 and 111.1 and 84.2 and 118.9 and 108.7 and 108.4

Question: What about the “Resazurin conversion, repeated exposure” value (HLC; HLC LDM D40, 1000 uM) of the same compound?
Answer: 72.7 and 101.3 and 78 and 89.4 and 85.4 and 124.1

Question: And the “Resazurin conversion, repeated exposure” value (HC3X; 10 uM)?
Answer: 105.5 and 90.3 and 90.2 and 88.2 and 71.2 and 75.6

Question: And the “Resazurin conversion, repeated exposure” value (HC3X; 30 uM)?
Answer: 115.8 and 62.8 and 93.9 and 99.3 and 81.1 and 63.6

Question: What about the “Resazurin conversion, repeated exposure” value (HC3X; 50 uM) of the same compound?
Answer: 82.1 and 69.4 and 93.5 and 81.3 and 74.4 and 55.8

Question: And the “Resazurin conversion, repeated exposure” value (HC3X; 100 uM)?
Answer: 49 and 46.9 and 84.4 and 61.2 and 50.7 and 51.6

Question: What about the “Resazurin conversion, repeated exposure” value (HC3X; 500 uM) of the same compound?
Answer: 18.2 and 17.1 and 16.8 and 16 and 16.9 and 13.4

Question: What about the “Resazurin conversion, repeated exposure” value (HC3X; 1000 uM) of the same compound?
Answer: 8.7 and 10.7 and 12.7 and 12.4 and 7.5

Question: What about the “Resazurin conversion, repeated exposure” value (HC3X; 2000 uM) of the same compound?
Answer: 4 and 3.7 and 3.3 and 2.8 and 3

Question: What about the “Resazurin conversion, repeated exposure” value (HC3X; 4000 uM) of the same compound?
Answer: 2.3 and 2.9 and 3.3 and 2.8 and 2.6 and 2.4

Question: And the “Resazurin conversion, repeated exposure” value (HepG2; HepG2 AAGLY D30, 10 uM)?
Answer: 102.7 and 108.3 and 96.3 and 95.5 and 95.9 and 100.8

Question: And the “Resazurin conversion, repeated exposure” value (HepG2; HepG2 AAGLY D30, 30 uM)?
Answer: 105.3 and 123.1 and 95.9 and 95.5 and 94.4 and 98.6

Question: What about the “Resazurin conversion, repeated exposure” value (HepG2; HepG2 AAGLY D30, 50 uM) of the same compound?
Answer: 152.4 and 137.5 and 121.1 and 116.5 and 124.4 and 119.5

Question: And the “Resazurin conversion, repeated exposure” value (HepG2; HepG2 AAGLY D30, 100 uM)?
Answer: 127.9 and 149.8 and 134.1 and 127 and 120.4 and 132.2

Question: And the “Resazurin conversion, repeated exposure” value (HepG2; HepG2 AAGLY D30, 300 uM)?
Answer: 69.6 and 78.3 and 68.3 and 72.6 and 71.7 and 76.3

Question: What about the “Resazurin conversion, repeated exposure” value (HepG2; HepG2 AAGLY D30, 500 uM) of the same compound?
Answer: 44.9 and 57 and 46.8 and 54.7 and 52.8 and 66

Question: What about the “Resazurin conversion, repeated exposure” value (HepG2; HepG2 AAGLY D30, 1000 uM) of the same compound?
Answer: 37.4 and 37.7 and 35.2 and 41.1 and 43.2 and 46

Question: What about the “Resazurin conversion, repeated exposure” value (HepG2; HepG2 AAGLY D30, 2000 uM) of the same compound?
Answer: 19.3 and 22.6 and 21.6 and 20.1 and 20.8

Question: And the “Resazurin conversion, repeated exposure” value (HepG2; HepG2 AAGLY D30, 4000 uM)?
Answer: 12.5 and 14.6 and 13 and 12.9 and 13.1 and 20.4

Question: And the “Resazurin conversion, repeated exposure” value (HepG2; HepG2 CTL D7, 10 uM)?
Answer: 93.9

Question: And the “Resazurin conversion, repeated exposure” value (HepG2; HepG2 CTL D7, 30 uM)?
Answer: 102.5 and 112.8 and 108.6 and 134.8 and 127 and 107.9

Question: What about the “Resazurin conversion, repeated exposure” value (HepG2; HepG2 CTL D7, 50 uM) of the same compound?
Answer: 101.5 and 107.8 and 111.6 and 126.8 and 128.3 and 109

Question: What about the “Resazurin conversion, repeated exposure” value (HepG2; HepG2 CTL D7, 100 uM) of the same compound?
Answer: 95.8 and 101 and 100.7 and 120.3 and 125.1 and 104.1

Question: What about the “Resazurin conversion, repeated exposure” value (HepG2; HepG2 CTL D7, 300 uM) of the same compound?
Answer: 67.5 and 62.9 and 68.7 and 80.5 and 91.5 and 70.1

Question: What about the “Resazurin conversion, repeated exposure” value (HepG2; HepG2 CTL D7, 500 uM) of the same compound?
Answer: 36 and 31.8 and 34.4 and 55.7 and 53 and 36.2

Question: And the “Resazurin conversion, repeated exposure” value (HepG2; HepG2 CTL D7, 1000 uM)?
Answer: 9.5 and 6.9 and 7.9 and 10.8 and 9.3 and 8.4

Question: What about the “Resazurin conversion, repeated exposure” value (HepG2; HepG2 CTL D7, 2000 uM) of the same compound?
Answer: 3.6 and 3.2 and 3.7 and 3.8 and 3.4

Question: And the “Resazurin conversion, repeated exposure” value (HepG2; HepG2 CTL D7, 4000 uM)?
Answer: 2.7 and 2 and 2.5 and 2.9 and 3

Question: And the “Resazurin conversion, repeated exposure” value (HC6X; HC6X AAGLY D40, 10 uM)?
Answer: 116.9 and 68.5 and 106.9 and 88.2 and 63 and 119.9

Question: And the “Resazurin conversion, repeated exposure” value (HC6X; HC6X AAGLY D40, 30 uM)?
Answer: 103.2 and 75.2 and 84.6 and 107.4 and 73.5 and 104.8

Question: What about the “Resazurin conversion, repeated exposure” value (HC6X; HC6X AAGLY D40, 50 uM) of the same compound?
Answer: 71.4 and 61.4 and 89.5 and 66.5 and 69.6 and 76.8

Question: And the “Resazurin conversion, repeated exposure” value (HC6X; HC6X AAGLY D40, 100 uM)?
Answer: 43.6 and 55 and 60.5 and 66.1 and 44.9 and 64.9

Question: And the “Resazurin conversion, repeated exposure” value (HC6X; HC6X AAGLY D40, 300 uM)?
Answer: 37.1 and 36.3 and 44.1 and 42.3 and 33.5 and 37.5

Question: What about the “Resazurin conversion, repeated exposure” value (HC6X; HC6X AAGLY D40, 500 uM) of the same compound?
Answer: 24.4 and 21.6 and 32.3 and 32.9 and 27.4 and 25.1

Question: What about the “Resazurin conversion, repeated exposure” value (HC6X; HC6X AAGLY D40, 1000 uM) of the same compound?
Answer: 25.5 and 25.3 and 37.2 and 22.8 and 23.6 and 21

Question: And the “Resazurin conversion, repeated exposure” value (HC6X; HC6X AAGLY D40, 2000 uM)?
Answer: 12 and 11.8 and 15.1 and 12.5 and 11.4 and 12.9

Question: What about the “Resazurin conversion, repeated exposure” value (HC6X; HC6X AAGLY D40 Remove dox, 10 uM) of the same compound?
Answer: 62.8 and 75.4 and 93.9 and 104.7 and 88.6 and 79.3

Question: And the “Resazurin conversion, repeated exposure” value (HC6X; HC6X AAGLY D40 Remove dox, 30 uM)?
Answer: 86.2 and 86.6 and 84.6 and 85 and 82.3

Question: And the “Resazurin conversion, repeated exposure” value (HC6X; HC6X AAGLY D40 Remove dox, 100 uM)?
Answer: 87.4 and 81.5 and 70.5 and 95.4 and 102 and 63.6

Question: What about the “Resazurin conversion, repeated exposure” value (HC6X; HC6X AAGLY D40 Remove dox, 300 uM) of the same compound?
Answer: 89.2 and 80.7 and 67.2 and 48.2 and 75.7 and 47.5

Question: And the “Resazurin conversion, repeated exposure” value (HC6X; HC6X AAGLY D40 Remove dox, 2000 uM)?
Answer: 43.7 and 44 and 38.6 and 66.6 and 63.4 and 64.5
